Measured values reported in patent US20250375460A1, “STAT DEGRADERS AND USES THEREOF” (Kymera Therapeutics, Inc., priority 2022, published 2025).

Biological target: T1, STAT3 (Homo sapiens, UniProt P40763)
T1 construct: expressed in transfected cells; host or cells: A549
Test: STAT3 HiBiT degradation assay in transfected A549 cells
Type: cell-based
Conditions: 24 h compound incubation, Nano-Glo HiBiT lytic detection, read-out: STAT3 HiBiT A549 degradation 24 h: Average external-Abs DC50
Method: Compound preparation and Cell seeding: The transfected A549 cells were harvested from dish into cell culture medium and cell numbers counted. Cells were diluted with culture medium to the desired density and 30 μL of cell suspension (about 2000 cells/well) were added into each well of a 384-well cell culture plate as designated and transferred into 37° C. 5% CO2 incubator for 24 h. Compounds were dissolved to 10 mM stock solution and 12 μL of the stock solution was transferred to a 384 LDV-plate. 3 fold, 10-point dilution was performed by transferring 4 μL compound into 8 μL DMSO using a TECAN (EVO200) liquid handler. 30 μL of diluted compound from compound source plate was transferred into the cell plate as designated by using Echo550 and transferred into 37° C. 5% CO2 incubator for 24 h.
Detection: Plates were removed from incubators and equilibrated at room temperature for 15 minutes. Nano-Glo Hibit Lytic Detection reagent (Promega Cat #N3040) was thawed and equilibrated to room temperature before the experiment. 30 μL of Nano-Glo Hibit Lytic Detection reagent was added into each well to be detected. The plates were held at room temperature for 10 min followed by reading on EnSpire.
Data analysis: The remaining activity was calculated following the formula: Remaining Activity(%)=100%×(Lumsample−LumNC)/(LumPC−LumNC). Calculate the IC50 by fitting the curve using Xlfit (v5.3.1.3), equation 201: fit=(A+((B−A)/(1+((x/C)^D)))); A: Bottom; B: Top; C: IC50; and D: Slope.
The letter codes for STAT3 DC50 include: A (<0.001 μM), B (0.001-0.01 μM), C (0.01-0.1 μM), and D (>0.1 μM).

T1 sequence (P40763 whole entry): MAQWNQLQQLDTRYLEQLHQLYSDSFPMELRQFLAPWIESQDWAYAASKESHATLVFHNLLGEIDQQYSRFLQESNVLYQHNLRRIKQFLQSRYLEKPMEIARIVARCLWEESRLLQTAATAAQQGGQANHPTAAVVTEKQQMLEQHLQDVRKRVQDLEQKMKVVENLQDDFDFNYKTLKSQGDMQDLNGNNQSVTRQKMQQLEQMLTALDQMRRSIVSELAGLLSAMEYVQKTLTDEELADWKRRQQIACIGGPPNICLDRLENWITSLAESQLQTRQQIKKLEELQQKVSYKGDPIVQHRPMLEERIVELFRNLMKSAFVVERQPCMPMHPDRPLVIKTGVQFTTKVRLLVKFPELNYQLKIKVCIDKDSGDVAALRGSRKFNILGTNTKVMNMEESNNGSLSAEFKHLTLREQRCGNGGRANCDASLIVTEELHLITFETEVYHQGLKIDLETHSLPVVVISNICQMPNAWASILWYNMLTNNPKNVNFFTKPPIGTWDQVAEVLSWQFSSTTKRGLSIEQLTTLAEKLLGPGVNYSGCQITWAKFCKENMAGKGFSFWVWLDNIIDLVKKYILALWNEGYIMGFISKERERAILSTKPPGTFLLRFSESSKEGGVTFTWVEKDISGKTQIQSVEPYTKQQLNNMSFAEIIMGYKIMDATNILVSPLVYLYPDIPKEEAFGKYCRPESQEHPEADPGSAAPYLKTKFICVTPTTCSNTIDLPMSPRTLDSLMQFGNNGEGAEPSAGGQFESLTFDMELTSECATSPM

SMILES	DC50 [µM]
C#Cc1ccc([C@H](C)NC(=O)[C@@H]2C[C@@H](O)CN2C(=O)[C@@H](c2cc(OCCCc3cccc(OC[C@H](CCC(N)=O)NC(=O)[C@@H]4CC[C@@H]5CCN(C(C)=O)C[C@H](NC(=O)c6cc7cc(C(=O)P(=O)(O)O)ccc7[nH]6)C(=O)N54)c3Cl)no2)C(C)C)cc1 [I-1]	< 0.001
CC(=O)N1CC[C@H]2CC[C@@H](C(=O)N[C@@H](CCC(N)=O)COc3cccc(CCCOc4cc([C@@H](C(=O)N5C[C@H](O)C[C@H]5C(=O)N[C@@H](C)c5ccc(-c6scnc6C)cc5)C(C)C)on4)c3Cl)N2C(=O)[C@@H](NC(=O)c2cc3cc(C(=O)P(=O)(O)O)ccc3[nH]2)C1 [I-2]	0.01 to 0.1
C#Cc1ccc(CNC(=O)[C@@H]2C[C@@H](O)CN2C(=O)[C@@H](c2cc(OCCCc3cccc(OC[C@H](CCC(N)=O)NC(=O)[C@@H]4CC[C@@H]5CCN(C(C)=O)C[C@H](NC(=O)c6cc7cc(C(=O)P(=O)(O)O)ccc7[nH]6)C(=O)N54)c3Cl)no2)C(C)C)cc1 [I-3]	< 0.001
C#Cc1ccc([C@H](C)NC(=O)[C@@H]2C[C@@H](O)CN2C(=O)[C@@H](NC(=O)CCCc2cccc(OC[C@H](CCC(N)=O)NC(=O)[C@@H]3CC[C@@H]4CCN(C(C)=O)C[C@H](NC(=O)c5cc6cc(C(=O)P(=O)(O)O)ccc6[nH]5)C(=O)N43)c2Cl)C(C)(C)C)cc1 [I-4]	0.001 to 0.01
C#Cc1ccc(CNC(=O)[C@@H]2C[C@@H](O)CN2C(=O)[C@@H](NC(=O)CCCc2cccc(OC[C@H](CCC(N)=O)NC(=O)[C@@H]3CC[C@@H]4CCN(C(C)=O)C[C@H](NC(=O)c5cc6cc(C(=O)P(=O)(O)O)ccc6[nH]5)C(=O)N43)c2Cl)C(C)(C)C)cc1 [I-5]	0.001 to 0.01
C#Cc1ccc(CNC(=O)[C@@H]2C[C@@H](O)CN2C(=O)[C@@H](c2cc(OCCCc3cccc(OC[C@H](CCC(N)=O)NC(=O)[C@@H]4CC[C@@H]5CCN(C(C)=O)C[C@H](NC(=O)c6cc7cc(C(=O)P(=O)(O)O)ccc7[nH]6)C(=O)N54)c3F)no2)C(C)C)cc1 [I-7]	< 0.001
C#Cc1ccc([C@H](C)NC(=O)[C@@H]2C[C@@H](O)CN2C(=O)[C@@H](NC(=O)CCCc2cccc(OC[C@H](CCC(N)=O)NC(=O)[C@@H]3CC[C@@H]4CCN(C(C)=O)C[C@H](NC(=O)c5cc6cc(C(=O)P(=O)(O)O)ccc6[nH]5)C(=O)N43)c2F)C(C)(C)C)cc1 [I-8]	0.001 to 0.01
C#Cc1ccc(CNC(=O)[C@@H]2C[C@@H](O)CN2C(=O)[C@@H](NC(=O)CCCc2cccc(OC[C@H](CCC(N)=O)NC(=O)[C@@H]3CC[C@@H]4CCN(C(C)=O)C[C@H](NC(=O)c5cc6cc(C(=O)P(=O)(O)O)ccc6[nH]5)C(=O)N43)c2F)C(C)(C)C)cc1 [I-9]	0.001 to 0.01
C#Cc1ccc([C@H](C)NC(=O)[C@@H]2C[C@@H](O)CN2C(=O)[C@@H](c2cc(OCCCc3cccc(OC[C@H](CCC(N)=O)NC(=O)[C@@H]4CC[C@@H]5CCN(C(C)=O)C[C@H](NC(=O)c6cc7cc(C(=O)P(=O)(O)O)ccc7[nH]6)C(=O)N54)c3C)no2)C(C)C)cc1 [I-10]	0.001 to 0.01
C#Cc1ccc([C@H](C)NC(=O)[C@@H]2C[C@@H](O)CN2C(=O)[C@H](c2cc(OCCCc3cccc(OC[C@H](CCC(N)=O)NC(=O)[C@@H]4CC[C@@H]5CCN(C(C)=O)C[C@H](NC(=O)c6cc7cc(C(=O)P(=O)(O)O)ccc7[nH]6)C(=O)N54)c3C)no2)C(C)C)cc1 [I-11]	> 0.1
C#Cc1ccc([C@H](C)NC(=O)[C@@H]2C[C@@H](O)CN2C(=O)[C@@H](NC(=O)CCCc2cccc(OC[C@H](CCC(N)=O)NC(=O)[C@@H]3CC[C@@H]4CCN(C(C)=O)C[C@H](NC(=O)c5cc6cc(C(=O)P(=O)(O)O)ccc6[nH]5)C(=O)N43)c2C)C(C)(C)C)cc1 [I-13]	0.01 to 0.1
C#Cc1ccc(CNC(=O)[C@@H]2C[C@@H](O)CN2C(=O)[C@@H](NC(=O)CCCc2cccc(OC[C@H](CCC(N)=O)NC(=O)[C@@H]3CC[C@@H]4CCN(C(C)=O)C[C@H](NC(=O)c5cc6cc(C(=O)P(=O)(O)O)ccc6[nH]5)C(=O)N43)c2C)C(C)(C)C)cc1 [I-14]	0.001 to 0.01
CC(=O)N1CC[C@H]2CC[C@@H](C(=O)N[C@@H](CCC(N)=O)COc3cccc(CCCOc4cc([C@H](C(=O)N5C[C@H](O)C[C@H]5C(=O)N[C@@H](C)c5ccc(-c6scnc6C)cc5)C(C)C)on4)c3F)N2C(=O)[C@@H](NC(=O)c2cc3cc(C(=O)P(=O)(O)O)ccc3[nH]2)C1 [I-15]	< 0.001
CC(=O)N1CC[C@H]2CC[C@@H](C(=O)N[C@@H](CCC(N)=O)COc3cccc(CCCOc4cc([C@@H](C(=O)N5C[C@H](O)C[C@H]5C(=O)N[C@@H](C)c5ccc(-c6scnc6C)cc5)C(C)C)on4)c3C)N2C(=O)[C@@H](NC(=O)c2cc3cc(C(=O)P(=O)(O)O)ccc3[nH]2)C1 [I-20]	0.01 to 0.1
CC(=O)N1CC[C@H]2CC[C@@H](C(=O)N[C@@H](CCC(N)=O)COc3cccc(CCCOc4cc([C@H](C(=O)N5C[C@H](O)C[C@H]5C(=O)NCc5ccc(-c6scnc6C)cc5)C(C)C)on4)c3C)N2C(=O)[C@@H](NC(=O)c2cc3cc(C(=O)P(=O)(O)O)ccc3[nH]2)C1 [I-21]	< 0.001
CC(=O)N1CC[C@H]2CC[C@@H](C(=O)N[C@@H](CCC(N)=O)COc3cccc(CCCOc4cc([C@@H](C(=O)N5C[C@H](O)C[C@H]5C(=O)NCc5ccc(-c6scnc6C)cc5)C(C)C)on4)c3C)N2C(=O)[C@@H](NC(=O)c2cc3cc(C(=O)P(=O)(O)O)ccc3[nH]2)C1 [I-22]	0.01 to 0.1
CC(=O)N1CC[C@H]2CC[C@@H](C(=O)N[C@@H](CCC(N)=O)COc3cccc(CCCOc4cc([C@H](C(=O)N5C[C@H](O)C[C@H]5C(=O)N[C@@H](C)c5ccc(-c6scnc6C)cc5)C(C)C)on4)c3Cl)N2C(=O)[C@@H](NC(=O)c2cc3cc(C(=O)P(=O)(O)O)ccc3[nH]2)C1 [I-23]	< 0.001
CC(=O)N1CC[C@@H]2CC[C@H](C(=O)N[C@@H](CCC(N)=O)COc3cccc(CCCCC(=O)N[C@H](C(=O)N4C[C@H](O)C[C@H]4C(=O)NCc4ccc(-c5scnc5C)cc4)C(C)(C)C)c3Cl)N2C(=O)[C@H](NC(=O)c2cc3cc(C(=O)P(=O)(O)O)ccc3[nH]2)C1 [I-24]	> 0.1
CCOP(=O)(OCC)C(=O)c1ccc2[nH]c(C(=O)N[C@H]3CN(C(C)=O)CC[C@H]4CC[C@@H](C(=O)N[C@@H](CCC(N)=O)COc5cccc(CCCOc6cc([C@H](C(=O)N7C[C@H](O)C[C@H]7C(=O)NCc7ccc(-c8scnc8C)cc7)C(C)C)on6)c5Cl)N4C3=O)cc2c1 [I-25]	0.01 to 0.1
CNC(=O)N1CC[C@H]2CC[C@@H](C(=O)N[C@@H](CCC(N)=O)COc3cccc(CCCC(=O)N[C@H](C(=O)N4C[C@H](O)C[C@H]4C(=O)N[C@@H](C)c4ccc(-c5scnc5C)cc4)C(C)(C)C)c3Cl)N2C(=O)[C@@H](NC(=O)c2cc3cc(C(F)(F)P(=O)(O)O)ccc3s2)C1 [I-26]	> 0.1
CC(=O)N1CC[C@H]2CC[C@@H](C(=O)N[C@@H](CCC(N)=O)COc3cccc(CCCOc4cc([C@H](C(=O)N5C[C@H](O)C[C@H]5C(=O)NCc5ccc(-c6scnc6C)cc5)C(C)C)on4)c3Cl)N2C(=O)[C@@H](NC(=O)c2cc3cc(C(=O)P(=O)(O)O)ccc3[nH]2)C1 [I-27]	< 0.001
CC(=O)N1CC[C@H]2CC[C@@H](S(=O)(=O)N[C@@H](CCC(N)=O)COc3cccc(CCCC(=O)N[C@H](C(=O)N4C[C@H](O)C[C@H]4C(=O)N[C@@H](C)c4ccc(-c5scnc5C)cc4)C(C)(C)C)c3Cl)N2C(=O)[C@@H](NC(=O)c2cc3cc(C(=O)P(=O)(O)O)ccc3[nH]2)C1 [I-30]	0.001 to 0.01
